In patent US8466291B2, “1,5-dideoxy-1,5-imino-D-glucitol compounds” (Academia Sinica, priority 2008, dated 2013):

Assays:
[1] = target: Bacteroids fragilis O-GlcNAcase (Bacteroides fragilis, UniProt Q5L8V6); assay: Michaelis-Menten/Lineweaver-Burk kinetic inhibition of O-GlcNAcase with 4MU-NAG substrate; format: biochemical; settings: for Selectivity (KI O-GlcNAcase/KI HEX): Bacteroids fragilis O-GlcNAcase over human HEX B, Table 1
Description: Bacteroids fragilis O-GlcNAcase, which is highly homologous to human O-GlcNAcase, was prepared as follows. Based on the genome sequence of B. fragilis (NCTC 9343) as disclosed in GenBank accession no. CR626927 (Oct. 23, 2008), a DNA fragment encoding the B. fragilis O-GlcNAcse was amplified via polymerase chain reaction (PCR), using the primers of: 5′-[…]-3′ (SEQ ID NO:1) (forward primer) and 5′-[…]-3′ (SEQ ID NO:2) (reverse primer). The PCR product was cloned into pGEM-T Easy vector (Promega) via cloning sites Nde1 and Xho1 and then subcloned into pET21b vector to produce expression plasmid pOGA, which encodes a fusion protein including O-GlcNAcase and a His6 tag at the C-terminus
Plasmid pOGA was transformed into E. coli BL21 (DE3) cells and a positive transformant was cultured in Luria-Bertani (LB) medium with ampicillin (100 μg/mL) overnight. The E. coli culture, transferred to fresh LB medium, was incubated at 37° C. and, when A600 of the culture reached 0.6, isopropyl-β-D-thiogalactopyranoside (final conc: 250 μM) was added to induce expression of O-GlcNAcse. The induced cells were further cultured at 16° C. overnight, harvested, and disrupted to produce a cell lysate. Upon centrifugation, the supernatant thus obtained was loaded onto a nickel-affinity column. After elution, a fraction containing O-GlcNAcse was collected and the enzyme contained therein was further purified by gel filtration using a Superdex 6 column. See Dennis et al., Nat Struct Mol Biol 2006, 13: 365-71. The purified protein was concentrated using a 10 kDa-cutoff concentrator and dialyzed against 20 mM HEPES (pH 7.5).
The reaction conditions for each enzyme are shown below:
O-GlcNAcase: reaction mixture (0.5 nM O-GlcNAcase (200 μL) in 50 mM citric acid, 100 mM NaCl, 0.1% BSA, 0.05-1.5 mM substrate, pH 4.25) was incubated at 30° C. for 25 minutes. The enzyme activity at different time points was determined by measuring the levels of the fluorescent signals (excitation wavelength: 360 nm; emission wavelength: 460 nm) released from 4-methylumbelliferone, a product of the enzyme reaction.
(§1) In these reactions, the substrate concentrations were three to five fold of the concentration used for determining KM (absent compounds) and the ratio between the enzyme and the compound was 0.1-0.5 nM to 0.3 nM-200 uM. The data thus obtained were analyzed by the Lineweaver-Burk plot. The K1 values were determined by the double reciprocal plot (1/V vs. 1/[S]). More specifically, the Km values for each enzyme in the presence of one of the test compounds first determined and these values were further plotted in view of the concentrations of the compound. K1 was determined by calculating the negative value of the resulting x-intercept. The selectivity of each compound was calculated by the formula: K1 O-GlcNAcase/K1 Hex B.

[2] = target: T1, O-GlcNAcase in human 293T cells (Homo sapiens, UniProt O60502); assay: Level of protein-associated O-GlcNAc in treated 293T cells by Western blot; format: cell-based; settings: 10 μM, 16 hours, Western blot with anti-O-GlcNAc antibody, versus un-treated cells
T1 construct: endogenous in cells; host or cells: 293T cells
T1 sequence (O60502 1-916): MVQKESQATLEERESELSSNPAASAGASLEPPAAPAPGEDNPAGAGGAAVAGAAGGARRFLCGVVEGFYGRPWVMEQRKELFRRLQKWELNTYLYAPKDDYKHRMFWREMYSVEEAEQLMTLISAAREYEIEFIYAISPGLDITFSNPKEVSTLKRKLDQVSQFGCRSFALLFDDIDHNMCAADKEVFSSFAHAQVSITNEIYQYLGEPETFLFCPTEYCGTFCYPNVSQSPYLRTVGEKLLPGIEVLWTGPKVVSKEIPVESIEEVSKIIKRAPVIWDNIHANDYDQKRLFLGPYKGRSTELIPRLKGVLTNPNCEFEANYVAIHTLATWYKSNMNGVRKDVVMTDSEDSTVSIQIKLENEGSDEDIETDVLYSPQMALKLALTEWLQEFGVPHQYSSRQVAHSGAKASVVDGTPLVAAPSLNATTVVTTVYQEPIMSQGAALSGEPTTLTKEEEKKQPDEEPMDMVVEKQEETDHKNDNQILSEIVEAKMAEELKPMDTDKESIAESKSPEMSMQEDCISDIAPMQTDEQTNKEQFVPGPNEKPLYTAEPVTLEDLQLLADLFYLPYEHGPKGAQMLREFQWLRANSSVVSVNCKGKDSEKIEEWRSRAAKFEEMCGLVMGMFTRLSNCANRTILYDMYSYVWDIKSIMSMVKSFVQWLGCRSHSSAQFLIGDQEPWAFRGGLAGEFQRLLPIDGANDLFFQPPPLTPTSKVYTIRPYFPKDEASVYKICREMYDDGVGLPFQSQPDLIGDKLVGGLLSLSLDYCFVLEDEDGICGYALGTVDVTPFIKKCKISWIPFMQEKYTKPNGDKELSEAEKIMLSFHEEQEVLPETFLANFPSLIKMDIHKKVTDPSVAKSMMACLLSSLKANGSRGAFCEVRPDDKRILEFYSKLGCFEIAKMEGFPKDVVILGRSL
Description: Additionally, Compounds 1 and 3 were tested to determine their inhibitory effects on O-GlcNAcase in human 293T cells. The cells were treated with 10 μM Compound 1 or 3 for 16 hours. The level of protein-associated O-GlcNAc moieties in the treated cells was determined by Western blot analysis using an anti-O-GlcNAc antibody. See Macauley et al., J. Biol. Chem. 2005, 280, 25313-25322. Two known O-GlcNAcase inhibitors, PUGNAc (10 μM) and STZ (10 μM), were used as positive controls (Hanover et al., Arch Biochem. Biophys. 1999, 362, 38-45 and Rao et al., EMBO J. 2006, 25, 1569-1578).

Human HEX B = target: T2, Human HEX B (Homo sapiens, UniProt P07686); assay: Michaelis-Menten/Lineweaver-Burk kinetic inhibition of Hex B with 4MU-NAG substrate; format: biochemical
T2 construct: Hex B protein (isolated from human placenta) was purchased from Sigma Co; purchased Sigma Co; host or cells: human placenta
T2 sequence (P07686 315-556 limits assumed): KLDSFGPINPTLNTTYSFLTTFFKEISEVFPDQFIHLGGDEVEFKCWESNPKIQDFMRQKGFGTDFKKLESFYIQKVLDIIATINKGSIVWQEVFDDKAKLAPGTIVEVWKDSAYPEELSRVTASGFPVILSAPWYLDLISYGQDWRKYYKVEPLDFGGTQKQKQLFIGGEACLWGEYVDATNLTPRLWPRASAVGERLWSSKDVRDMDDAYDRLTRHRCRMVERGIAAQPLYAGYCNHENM
T2 sequence (P07686 122-311 limits assumed): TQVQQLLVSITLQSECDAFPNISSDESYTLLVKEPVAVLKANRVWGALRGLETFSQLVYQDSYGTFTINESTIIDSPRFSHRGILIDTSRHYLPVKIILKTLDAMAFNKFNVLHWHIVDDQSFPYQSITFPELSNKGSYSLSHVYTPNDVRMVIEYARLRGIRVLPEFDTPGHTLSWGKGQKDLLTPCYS
T2 sequence (P07686 50-107 partner limits assumed): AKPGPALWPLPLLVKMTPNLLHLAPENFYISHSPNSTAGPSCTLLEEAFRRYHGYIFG
Description: Hex B protein (isolated from human placenta) was purchased from Sigma Co.
Both O-GlcNAcase and Hex B were subjected to Michaelis-Menton kinetic analysis to determine the kinetics of their enzymatic activity in the presence of absence of Compounds 1-5 and Compound ix, using 4-methylumbelliferyl-N-acetyl-β-D-glucosaminide (4MU-NAG; purchased from Sigma Co.) as the substrate (a fluorogenic substrate). The reaction conditions for each enzyme are shown below:
Hex B: reaction mixture (0.1 nM Hex B (200 μL), 50 mM NaH2PO4, 100 mM NaCl, 0.1% BSA, 0.05-1.5 mM substrate, pH 6.5) was incubated at 30° C. for 25 minutes. The reaction was terminated by addition of a 3× quenching buffer (200 mM sodium glycine buffer, pH 10.8). The enzyme activity was determined as described above.
as §1, with “To determine the effects of Compounds 1-5 and Compound ix on the kinetics of both enzymes, the enzyme reactions described above were performed in the presence of each compound at different concentrations. In” for “In”

Human O-GlcNAcase = target: T3, Human O-GlcNAcase (Homo sapiens, UniProt O60502); assay: Inhibition of human O-GlcNAcase; format: biochemical; settings: Table 2; for Selectivity (KI O-GlcNAcase/KI HEX): Human O-GlcNAcase over human HEX B; for Ki: Human O-GlcNAcase
T3 construct: made in house
T3 sequence (O60502 1-916): T1 sequence (O60502 1-916)
Description: Human O-GlcNAcase was also prepared and tested according to the procedures described in Gao et al., J. Biol. Chem. 2001, 276, 9838-9845 and Macauley et al., J. Am. Chem. Soc. 2005, 127, 17202-17203.

BV2 cells = assay: GM2 ganglioside level in BV2 cells by high performance thin-layer chromatography; format: cell-based, mouse; settings: 200 nM, 10 days, HPTLC
Description: Glycosphingolipids (e.g., GM2) were extracted from the treated cells with chloroform/methanol and the ganglioside levels were determined by high performance thin-layer chromatography.

Chain of Bacteroids fragilis O-GlcNAcase (Q5L8V6 entry or part of it): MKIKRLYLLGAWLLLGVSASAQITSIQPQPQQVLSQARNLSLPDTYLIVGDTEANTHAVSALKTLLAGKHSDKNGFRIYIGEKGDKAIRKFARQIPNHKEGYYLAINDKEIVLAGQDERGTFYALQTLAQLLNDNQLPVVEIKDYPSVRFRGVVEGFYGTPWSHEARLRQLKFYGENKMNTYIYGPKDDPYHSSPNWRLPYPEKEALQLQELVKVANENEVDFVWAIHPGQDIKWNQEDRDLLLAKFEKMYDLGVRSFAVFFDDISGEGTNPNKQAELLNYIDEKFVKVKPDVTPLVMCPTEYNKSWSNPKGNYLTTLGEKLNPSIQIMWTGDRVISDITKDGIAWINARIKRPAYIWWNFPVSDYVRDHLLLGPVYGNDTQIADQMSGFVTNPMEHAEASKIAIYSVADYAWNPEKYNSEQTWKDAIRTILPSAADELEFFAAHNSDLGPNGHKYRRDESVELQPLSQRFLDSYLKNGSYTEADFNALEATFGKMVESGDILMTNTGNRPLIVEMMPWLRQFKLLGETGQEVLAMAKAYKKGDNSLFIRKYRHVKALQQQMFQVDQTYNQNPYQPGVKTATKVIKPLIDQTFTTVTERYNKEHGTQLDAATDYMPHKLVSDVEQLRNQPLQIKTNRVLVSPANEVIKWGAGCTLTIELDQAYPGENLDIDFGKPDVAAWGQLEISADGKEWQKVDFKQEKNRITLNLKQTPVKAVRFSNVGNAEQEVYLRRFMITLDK

CC(=O)NC1CN(CCCCCCCN)C(CO)C(O)C1O [Compound 1, N-[1(7-Amino-heptyl)]-2-acetamido-1,2,5-trideoxy-1,5-imino-D-glucitol]
Ki [1]: 75.3 ± 9.13 µM | Selectivity (KI O-GlcNAcase/KI HEX) [1]: 36,000 | level of O-GlcNAc moieties in treated cells [2]: not significantly different than that in un-treated cells | Ki (Human HEX B; Table 1): 2.1 ± 0.38 nM | Ki (Human HEX B; Table 2): 2.1 ± 0.38 nM | Selectivity (KI O-GlcNAcase/KI HEX) (Human O-GlcNAcase): 51,000 | Ki (Human O-GlcNAcase): 108 ± 9.17 µM

COc1ccc(CNCCCCCCCN2CC(NC(C)=O)C(O)C(O)C2CO)cc1 (stereo not drawn) [Compound 2]
Ki [1]: 72.1 ± 0.88 µM | Selectivity (KI O-GlcNAcase/KI HEX) [1]: 60,000 | Ki (Human HEX B; Table 1): 1.2 ± 0.23 nM | Ki (Human HEX B; Table 2): 1.2 ± 0.23 nM | Selectivity (KI O-GlcNAcase/KI HEX) (Human O-GlcNAcase): 85,000 | Ki (Human O-GlcNAcase): 102 ± 6.47 µM

COc1ccc(CN(CCCCCCCN2CC(NC(C)=O)C(O)C(O)C2CO)Cc2ccc(OC)cc2)cc1 (stereo not drawn) [Compound 3]
Ki [1]: 129 ± 2.55 µM | Selectivity (KI O-GlcNAcase/KI HEX) [1]: 190,000 | level of O-GlcNAc moieties in treated cells [2]: not significantly different than that in un-treated cells | Ki (Human HEX B; Table 1): 0.69 ± 0.077 nM | Ki (Human HEX B; Table 2): 0.69 ± 0.077 nM | GM2 level in treated cells (BV2 cells): significantly increased | Selectivity (KI O-GlcNAcase/KI HEX) (Human O-GlcNAcase): 250,000 | Ki (Human O-GlcNAcase): 176 ± 2.15 µM

CC(=O)NC1CN(CCCCCCCN=[N+]=[N-])C(CO)C(O)C1O (stereo not drawn) [Compound 4]
Ki [1]: 95.7 ± 8.37 µM | Selectivity (KI O-GlcNAcase/KI HEX) [1]: 56 | Ki (Human HEX B; Table 1): 1700 ± 560 nM | Ki (Human HEX B; Table 2): 1700 ± 560 nM | Selectivity (KI O-GlcNAcase/KI HEX) (Human O-GlcNAcase): 91 | Ki (Human O-GlcNAcase): 155 ± 9.87 µM

CC(=O)N[C@H]1/C(=N/OC(=O)Nc2ccccc2)O[C@H](CO)[C@@H](O)[C@@H]1O [PUGNAc, reference compound]
level of O-GlcNAc moieties in treated cells [2]: notably increased | GM2 level in treated cells (BV2 cells): only modestly increased

CN(N=O)C(=O)N[C@@H]1[C@@H](O)[C@H](O)[C@@H](CO)O[C@@H]1O [STZ, reference compound]
level of O-GlcNAc moieties in treated cells [2]: notably increased
